Test results as given in PubChem BioAssay (NCI).
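Interpolation was linear, between the two tested concentrations surrounding the appropriate level; five concentrations were tested over 48 hours in 96-well plates. GI50 = concentration required for 50% inhibition of growth. TGI: concentration producing complete growth inhibition.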

Legend:
Experiment in all cases: growth of human tumour cells (NCI), 48 h
M14 melanoma = tested on: M14 melanoma
MCF7 breast = tested on: MCF7 breast
PC-3 prostate = tested on: PC-3 prostate
HT29 colon = tested on: HT29 colon
HCT-15 colon = tested on: HCT-15 colon
NCI-H460 lung = tested on: NCI-H460 lung
K-562 leukemia = tested on: K-562 leukemia
HOP-62 NSCLC = tested on: HOP-62 NSCLC
NCI-H522 lung = tested on: NCI-H522 lung
KM12 colon = tested on: KM12 colon
MALME-3M melanoma = tested on: MALME-3M melanoma
IGROV1 ovarian = tested on: IGROV1 ovarian
OVCAR-4 ovarian = tested on: OVCAR-4 ovarian
ACHN renal = tested on: ACHN renal
RPMI-8226 leukemia = tested on: RPMI-8226 leukemia
A498 renal = tested on: A498 renal
DU-145 prostate = tested on: DU-145 prostate
HS 578T breast = tested on: HS 578T breast
MDA-MB-231 breast = tested on: MDA-MB-231 breast
OVCAR-3 ovarian = tested on: OVCAR-3 ovarian
A549 NSCLC = tested on: A549 NSCLC
HCC-2998 colon = tested on: HCC-2998 colon
SNB-19 CNS = tested on: SNB-19 CNS
LOX IMVI melanoma = tested on: LOX IMVI melanoma
SK-MEL-5 melanoma = tested on: SK-MEL-5 melanoma
COLO 205 colon = tested on: COLO 205 colon
U251 CNS = tested on: U251 CNS
NCI-H226 lung = tested on: NCI-H226 lung
OVCAR-5 ovarian = tested on: OVCAR-5 ovarian
SNB-75 CNS = tested on: SNB-75 CNS
T-47D breast = tested on: T-47D breast
CCRF-CEM leukemia = tested on: CCRF-CEM leukemia
SF-268 CNS = tested on: SF-268 CNS
SK-MEL-2 melanoma = tested on: SK-MEL-2 melanoma
RXF 393 renal = tested on: RXF 393 renal
HCT-116 colon = tested on: HCT-116 colon
BT-549 breast = tested on: BT-549 breast
EKVX NSCLC = tested on: EKVX NSCLC
SF-539 CNS = tested on: SF-539 CNS
CAKI-1 renal = tested on: CAKI-1 renal
UO-31 renal = tested on: UO-31 renal
MDA-MB-435 = tested on: MDA-MB-435
SN12C renal = tested on: SN12C renal
786-0 renal = tested on: 786-0 renal
SF-295 CNS = tested on: SF-295 CNS
HL-60(TB) leukemia = tested on: HL-60(TB) leukemia
NCI/ADR-RES ovarian = tested on: NCI/ADR-RES ovarian
MOLT-4 leukemia = tested on: MOLT-4 leukemia
SK-MEL-28 melanoma = tested on: SK-MEL-28 melanoma
TK-10 renal = tested on: TK-10 renal
UACC-62 melanoma = tested on: UACC-62 melanoma
UACC-257 melanoma = tested on: UACC-257 melanoma
SW-620 colon = tested on: SW-620 colon
HOP-92 NSCLC = tested on: HOP-92 NSCLC
SK-OV-3 ovarian = tested on: SK-OV-3 ovarian
SR leukemia = tested on: SR leukemia
NCI-H23 lung = tested on: NCI-H23 lung

`COC1=C(OC)C(=O)C(CCCCCCCCCC[P+](c2ccccc2)(c2ccccc2)c2ccccc2)=C(C)C1=O` showed a GI50 (M14 melanoma) of 366 nM, a TGI (M14 melanoma) of 1700 nM and a GI50 (MCF7 breast) of 42 nM. It also gave a TGI (MCF7 breast) of 532 nM, a GI50 (PC-3 prostate) of 130 nM and a TGI (PC-3 prostate) of 4040 nM. For the same compound, the GI50 (HT29 colon) was 194 nM, the TGI (HT29 colon) was 1050 nM and the GI50 (HCT-15 colon) was 1330 nM. The TGI (HCT-15 colon) was 3460 nM, the GI50 (NCI-H460 lung) was 266 nM and the TGI (NCI-H460 lung) was 1160 nM. It also gave a GI50 (K-562 leukemia) of 244 nM, a GI50 (HOP-62 NSCLC) of 194 nM and a TGI (HOP-62 NSCLC) of 491 nM. It also gave a GI50 (NCI-H522 lung) of 170 nM, a TGI (NCI-H522 lung) of 795 nM and a GI50 (KM12 colon) of 145 nM. The TGI (KM12 colon) was 884 nM, the GI50 (MALME-3M melanoma) was 206 nM and the TGI (MALME-3M melanoma) was 908 nM. The GI50 (IGROV1 ovarian) was 187 nM, the TGI (IGROV1 ovarian) was 1870 nM and the GI50 (OVCAR-4 ovarian) was 166 nM. The TGI (OVCAR-4 ovarian) was 2860 nM, the GI50 (ACHN renal) was 1070 nM and the TGI (ACHN renal) was 3720 nM. For the same compound, the GI50 (RPMI-8226 leukemia) was 24.7 nM, the TGI (RPMI-8226 leukemia) was 143 nM and the GI50 (A498 renal) was 371 nM. It also gave a TGI (A498 renal) of 1790 nM, a GI50 (DU-145 prostate) of 351 nM and a TGI (DU-145 prostate) of 1730 nM. The GI50 (HS 578T breast) was 204 nM, the TGI (HS 578T breast) was 1620 nM and the GI50 (MDA-MB-231 breast) was 265 nM. For the same compound, the TGI (MDA-MB-231 breast) was 1480 nM, the GI50 (OVCAR-3 ovarian) was 219 nM and the TGI (OVCAR-3 ovarian) was 1100 nM. The GI50 (A549 NSCLC) was 337 nM, the TGI (A549 NSCLC) was 5140 nM and the GI50 (HCC-2998 colon) was 247 nM. For the same compound, the TGI (HCC-2998 colon) was 1380 nM, the GI50 (SNB-19 CNS) was 125 nM and the TGI (SNB-19 CNS) was 1300 nM. It also gave a GI50 (LOX IMVI melanoma) of 299 nM, a TGI (LOX IMVI melanoma) of 1550 nM and a GI50 (SK-MEL-5 melanoma) of 71.3 nM. It also gave a TGI (SK-MEL-5 melanoma) of 222 nM, a GI50 (COLO 205 colon) of 99.9 nM and a TGI (COLO 205 colon) of 279 nM. For the same compound, the GI50 (U251 CNS) was 104 nM, the TGI (U251 CNS) was 1170 nM and the GI50 (NCI-H226 lung) was 284 nM. For the same compound, the TGI (NCI-H226 lung) was 915 nM, the GI50 (OVCAR-5 ovarian) was 361 nM and the TGI (OVCAR-5 ovarian) was 1410 nM. The GI50 (SNB-75 CNS) was 211 nM, the TGI (SNB-75 CNS) was 925 nM and the GI50 (T-47D breast) was 48.1 nM. For the same compound, the TGI (T-47D breast) was 1040 nM, the GI50 (CCRF-CEM leukemia) was 107 nM and the TGI (CCRF-CEM leukemia) was 1180 nM. For the same compound, the GI50 (SF-268 CNS) was 345 nM, the TGI (SF-268 CNS) was 1440 nM and the GI50 (SK-MEL-2 melanoma) was 744 nM. The TGI (SK-MEL-2 melanoma) was 3510 nM, the GI50 (RXF 393 renal) was 293 nM and the TGI (RXF 393 renal) was 10700 nM. For the same compound, the GI50 (HCT-116 colon) was 135 nM, the TGI (HCT-116 colon) was 329 nM and the GI50 (BT-549 breast) was 249 nM. It also gave a TGI (BT-549 breast) of 1090 nM, a GI50 (EKVX NSCLC) of 137 nM and a TGI (EKVX NSCLC) of 4740 nM. It also gave a GI50 (SF-539 CNS) of 256 nM, a TGI (SF-539 CNS) of 1280 nM and a GI50 (CAKI-1 renal) of 853 nM. The TGI (CAKI-1 renal) was 3270 nM, the GI50 (UO-31 renal) was 1670 nM and the TGI (UO-31 renal) was 3430 nM. It also gave a GI50 (MDA-MB-435) of 193 nM, a TGI (MDA-MB-435) of 1280 nM and a GI50 (SN12C renal) of 213 nM. The TGI (SN12C renal) was 1320 nM, the GI50 (786-0 renal) was 269 nM and the TGI (786-0 renal) was 530 nM. For the same compound, the GI50 (SF-295 CNS) was 189 nM, the TGI (SF-295 CNS) was 585 nM and the GI50 (HL-60(TB) leukemia) was 59.8 nM. For the same compound, the TGI (HL-60(TB) leukemia) was 409 nM, the GI50 (NCI/ADR-RES ovarian) was 3130 nM and the TGI (NCI/ADR-RES ovarian) was 20300 nM. The GI50 (MOLT-4 leukemia) was 376 nM, the TGI (MOLT-4 leukemia) was 7780 nM and the GI50 (SK-MEL-28 melanoma) was 475 nM. For the same compound, the TGI (SK-MEL-28 melanoma) was 2170 nM, the GI50 (TK-10 renal) was 303 nM and the TGI (TK-10 renal) was 1380 nM. It also gave a GI50 (UACC-62 melanoma) of 312 nM, a TGI (UACC-62 melanoma) of 1730 nM and a GI50 (UACC-257 melanoma) of 150 nM. For the same compound, the TGI (UACC-257 melanoma) was 931 nM, the GI50 (SW-620 colon) was 334 nM and the TGI (SW-620 colon) was 4910 nM. The GI50 (HOP-92 NSCLC) was 97.7 nM, the TGI (HOP-92 NSCLC) was 504 nM and the GI50 (SK-OV-3 ovarian) was 255 nM. For the same compound, the TGI (SK-OV-3 ovarian) was 869 nM, the GI50 (SR leukemia) was over 100000 nM and the TGI (SR leukemia) was over 100000 nM. It also gave a GI50 (NCI-H23 lung) of 160 nM and a TGI (NCI-H23 lung) of 930 nM.
